Source: article PMC6494879, “Drug resistance emergence in macaques administered cabotegravir long-acting for pre-exposure prophylaxis during acute SHIV infection” (Nature Communications, 2019)

Legend:
[1] = test system: SIV integrase Q124R (SIV IN RTV pseudovirus); assay: organism not typed; format: cell-based; conditions: for EC50: HEK293
[2] = test system: SIV integrase I250V (SIV IN RTV pseudovirus); assay: organism not typed; format: cell-based; conditions: for EC50: HEK293
[3] = test system: SIV integrase G118R/A122T (SIV IN RTV pseudovirus); format: cell-based; conditions: G118R/A122T SIV integrase mutant
[4] = test system: SIV integrase E92Q (SIV IN RTV pseudovirus); format: cell-based; conditions: E92Q SIV integrase mutant
[5] = test system: SIV integrase I72T (SIV IN RTV pseudovirus); assay: organism not typed; format: cell-based; conditions: for EC50: HEK293
[6] = test system: SIV integrase I110V (SIV IN RTV pseudovirus); assay: organism not typed; format: cell-based; conditions: for EC50: HEK293
[7] = test system: SIV integrase E92Q/G140R (SIV IN RTV pseudovirus); format: cell-based; conditions: E92Q/G140R SIV integrase mutant
[8] = test system: SIV integrase A122T (SIV IN RTV pseudovirus); assay: organism not typed; format: cell-based; conditions: for EC50: HEK293
[9] = test system: SIV integrase G140R (SIV IN RTV pseudovirus); assay: organism not typed; format: cell-based; conditions: for EC50: HEK293
[10] = test system: SIV integrase WT (SIV IN RTV pseudovirus); assay: organism not typed; format: cell-based; conditions: for EC50: HEK293; for fold-change relative to wild type integrase: WT SIV integrase
[11] = test system: SIV integrase E92G (SIV IN RTV pseudovirus)
[12] = test system: SIV integrase G118R (SIV IN RTV pseudovirus); format: cell-based; conditions: G118R SIV integrase mutant
[13] = test system: HIV integrase G140S/A/C; conditions: cited from earlier work

SMILES: O=C(NCc1c(F)cc(F)cc1F)c1cn2c(c(O)c1=O)C(=O)N1[C@H]3CC[C@H](C3)O[C@@H]1C2 [BIC, bictegravir]
- EC50 [1]: 1.49 nM
- fold-change relative to wild type integrase [1]: 1.5 fold
- EC50 [2]: 1.56 nM
- fold-change relative to wild type integrase [2]: 1.6 fold
- fold-change relative to wild type integrase [3]: >1000 (>1000) fold
- fold-change relative to wild type integrase [4]: 2.0 fold
- EC50 [5]: 1.51 nM
- fold-change relative to wild type integrase [5]: 1.5 fold
- EC50 [6]: 1.78 nM
- fold-change relative to wild type integrase [6]: 1.8 fold
- fold-change relative to wild type integrase [7]: >1000 (>1000) fold
- EC50 [8]: 2.1 nM
- fold-change relative to wild type integrase [8]: 2.1 fold
- EC50 [9]: > 1000 nM
- fold-change relative to wild type integrase [9]: >1000 (>1000) fold
- EC50 [10]: 1 nM
- fold-change relative to wild type integrase [10]: 1 fold
- EC50 [11]: 4.29 nM
- fold-change relative to wild type integrase [11]: 4.3 fold
- fold-change relative to wild type integrase [12]: >1000 (>1000) fold

SMILES: C[C@@H]1CCO[C@H]2Cn3cc(C(=O)NCc4ccc(F)cc4F)c(=O)c(O)c3C(=O)N12 [DTG, dolutegravir]
- EC50 [1]: 1.62 nM
- fold-change relative to wild type integrase [1]: 1.6 fold
- EC50 [2]: 0.92 nM
- fold-change relative to wild type integrase [2]: 0.9 fold
- fold-change relative to wild type integrase [3]: >1000 (>1000) fold
- fold-change relative to wild type integrase [4]: 1.5 fold
- EC50 [5]: 1.14 nM
- fold-change relative to wild type integrase [5]: 1.1 fold
- EC50 [6]: 1.52 nM
- fold-change relative to wild type integrase [6]: 1.5 fold
- fold-change relative to wild type integrase [7]: >1000 (>1000) fold
- fold reduced susceptibility of HIV with G140S/A/C [13]: 10-100 fold
- EC50 [8]: 1.42 nM
- fold-change relative to wild type integrase [8]: 1.4 fold
- EC50 [9]: > 1000 nM
- fold-change relative to wild type integrase [9]: >1000 (>1000) fold
- EC50 [10]: 1 nM
- fold-change relative to wild type integrase [10]: 1 fold
- EC50 [11]: 2.78 nM
- fold-change relative to wild type integrase [11]: 2.8 fold
- fold-change relative to wild type integrase [12]: >1000 (>1000) fold

SMILES: O=C1Nc2ccc(Cl)cc2[C@@](C#CC2CC2)(C(F)(F)F)O1 [EFV, efavirenz]
- EC50 [1]: 0.7 nM
- fold-change relative to wild type integrase [1]: 1.0 fold
- EC50 [2]: 0.67 nM
- fold-change relative to wild type integrase [2]: 1.0 fold
- fold-change relative to wild type integrase [3]: 1.1 fold
- fold-change relative to wild type integrase [4]: 0.8 fold
- EC50 [5]: 0.6 nM
- fold-change relative to wild type integrase [5]: 0.9 fold
- EC50 [6]: 0.79 nM
- fold-change relative to wild type integrase [6]: 1.2 fold
- fold-change relative to wild type integrase [7]: 1.9 fold
- EC50 [8]: 0.77 nM
- fold-change relative to wild type integrase [8]: 1.2 fold
- EC50 [9]: 0.59 nM
- fold-change relative to wild type integrase [9]: 0.9 fold
- EC50 [10]: 0.67 nM
- fold-change relative to wild type integrase [10]: 1 fold
- EC50 [11]: 1.01 nM
- fold-change relative to wild type integrase [11]: 1.5 fold
- fold-change relative to wild type integrase [12]: 1.5 fold

SMILES: COc1cc2c(cc1Cc1cccc(Cl)c1F)c(=O)c(C(=O)O)cn2[C@H](CO)C(C)C [EVG, elvitegravir]
- EC50 [1]: 1.59 nM
- fold-change relative to wild type integrase [1]: 1.3 fold
- EC50 [2]: 1.45 nM
- fold-change relative to wild type integrase [2]: 1.2 fold
- fold-change relative to wild type integrase [3]: > 807 fold
- fold-change relative to wild type integrase [4]: 7.8 fold
- EC50 [5]: 1.17 nM
- fold-change relative to wild type integrase [5]: 0.9 fold
- EC50 [6]: 1.55 nM
- fold-change relative to wild type integrase [6]: 1.3 fold
- fold-change relative to wild type integrase [7]: > 807 fold
- fold reduced susceptibility of HIV with G140S/A/C [13]: 10-100 fold
- EC50 [8]: 1.15 nM
- fold-change relative to wild type integrase [8]: 0.9 fold
- EC50 [9]: > 1000 nM
- fold-change relative to wild type integrase [9]: > 807 fold
- EC50 [10]: 1.24 nM
- fold-change relative to wild type integrase [10]: 1 fold
- EC50 [11]: 4.53 nM
- fold-change relative to wild type integrase [11]: 3.7 fold
- fold-change relative to wild type integrase [12]: > 807 fold

SMILES: Cc1nnc(C(=O)NC(C)(C)c2nc(C(=O)NCc3ccc(F)cc3)c(O)c(=O)n2C)o1 [RAL, raltegravir]
- EC50 [1]: 4.6 nM
- fold-change relative to wild type integrase [1]: 1.6 fold
- EC50 [2]: 4 nM
- fold-change relative to wild type integrase [2]: 1.4 fold
- fold-change relative to wild type integrase [3]: > 345 fold
- fold-change relative to wild type integrase [4]: 3.6 fold
- EC50 [5]: 2.73 nM
- fold-change relative to wild type integrase [5]: 0.9 fold
- EC50 [6]: 3.8 nM
- fold-change relative to wild type integrase [6]: 1.3 fold
- fold-change relative to wild type integrase [7]: > 345 fold
- fold reduced susceptibility of HIV with G140S/A/C [13]: 10-100 fold
- EC50 [8]: 4.13 nM
- fold-change relative to wild type integrase [8]: 1.4 fold
- EC50 [9]: > 1000 nM
- fold-change relative to wild type integrase [9]: > 345 fold
- EC50 [10]: 2.9 nM
- fold-change relative to wild type integrase [10]: 1 fold
- EC50 [11]: 8.07 nM
- fold-change relative to wild type integrase [11]: 2.8 fold
- fold-change relative to wild type integrase [12]: > 345 fold
